One block for each molecule: values may come before it. Ends that are not written are not given here.
Tests used:
psoriasis animal model = assay: Inhibitory effect on inflammation in imiquimod-induced psoriasis animal model; format: in vivo, mouse; conditions: day 7
Protocol: The nanoparticle complex prepared in Example 3 was applied on the skin of a psoriasis animal model and the inhibitory effect of the complex on inflammation caused by psoriasis was investigated. First, the hair of the ear of the mouse was removed, and imiquimod was continuously treated at the concentration of 20 mg/cm^2 for 6 days from the next day to induce psoriasis. On the other hand, on the 2nd to 6th day of the treatment of imiquimod, the nanoparticle complex of Example 3 or Comparative Example 3 was applied in a total amount of 100 μg, 50 μg per time. On the day when imiquimod and the treatment drug were treated together, the treatment drug was applied 4 hours before and after the application of imiquimod to prevent the interaction between the drugs. At this time, the groups treated with Vaseline and DW were used as the negative control, and the group applied with clobetasol propionate (CLQ) at the concentration of 20 mg/cm^2 was used as the positive control. The application of the nanoparticle complex was completed by day 6, and the inhibitory effect on inflammation was confirmed using the animal model on day 7 (FIG. 14). Particularly, the inhibitory effect on inflammation was confirmed by measuring the thickness of the ear of the animal model, the punch biopsy weight, tissue H&E test, ELISA after tissue crushing, and the extracted spleen weight. […]

MLE12 cells = assay: Epithelial-to-myofibroblast differentiation, vimentin FACS after TGF-β; format: cell-based
STAT3 protein = STAT3 protein (Homo sapiens, UniProt P40763); assay: Binding of the aptide to STAT3 protein; conditions: read-out: affinity of binding to STAT3 protein
Chain of STAT3 protein (P40763 whole entry, species assumed, the tested form may be a part): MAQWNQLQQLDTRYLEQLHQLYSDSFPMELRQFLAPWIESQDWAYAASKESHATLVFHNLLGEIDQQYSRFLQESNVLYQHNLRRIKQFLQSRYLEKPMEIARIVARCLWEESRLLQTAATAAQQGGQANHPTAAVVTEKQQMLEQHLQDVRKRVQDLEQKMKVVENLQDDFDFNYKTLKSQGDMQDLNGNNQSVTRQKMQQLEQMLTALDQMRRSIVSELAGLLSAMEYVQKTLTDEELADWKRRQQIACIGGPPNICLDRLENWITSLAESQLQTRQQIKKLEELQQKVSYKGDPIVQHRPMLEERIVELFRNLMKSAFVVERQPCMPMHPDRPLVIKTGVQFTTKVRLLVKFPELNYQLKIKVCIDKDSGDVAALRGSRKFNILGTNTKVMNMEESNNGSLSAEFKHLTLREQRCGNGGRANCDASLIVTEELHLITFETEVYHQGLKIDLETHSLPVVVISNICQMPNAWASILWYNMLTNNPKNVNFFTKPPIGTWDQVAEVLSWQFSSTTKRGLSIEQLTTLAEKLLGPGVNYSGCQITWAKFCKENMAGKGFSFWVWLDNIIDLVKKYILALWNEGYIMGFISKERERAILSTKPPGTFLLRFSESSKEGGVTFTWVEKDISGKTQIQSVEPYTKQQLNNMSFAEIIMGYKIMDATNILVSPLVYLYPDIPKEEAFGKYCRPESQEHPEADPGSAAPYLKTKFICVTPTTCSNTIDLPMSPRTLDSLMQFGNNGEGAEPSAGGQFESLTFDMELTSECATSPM
Protocol: The aptide according to the present invention can be an aptide that specifically binds to STAT3 (signal transducer and activator of transcription 3) protein, and can specifically be composed of the amino acid sequence represented by SEQ. ID. NO: 2. the aptide for STAT3 protein is stable with a size of about 5 kDa, and can bind to STAT3 protein with a high affinity of 200 nM. The aptide for STAT3 protein can inhibit the activation of STAT3 protein by binding to SH2 domain of STAT3 protein and suppressing the phosphorylation. This mechanism may have less effect on an inaccurate target than a conventional JAK inhibitor that inhibits the activation of STAT3 protein using the JAK inhibitory mechanism.

RAW264.7 cells = assay: M2 polarization of IL-10 stimulated macrophages, CD163 FACS; format: cell-based, mouse; conditions: 20 μM, IL-10 stimulation 48 h
Protocol: To perform FACS analysis, mouse macrophage cell line (RAW264.7) was seeded in a 6-well plate at 2×10^5 cells/well density and incubated overnight for stabilization. In order to induce M2-type polarization, the samples were stimulated with IL-10 for 48 h in a 37° C.-maintained, 5% CO2 incubator. PBS, APTscr-9R(20 μM), and APTstat3-9R(20 μM) were simultaneously accordingly added for co-treatment. After the incubation, the specimens were collected and incubated for 30 min with 10% BSA in PBS to block non-specific binding of antibodies. After blocking, the samples were washed with three changes of 1×PBS for 5 min each. The collected specimens were resuspended in a 1 mL of separation buffer. The cells were collected in the filter tubes with strainer ([…]). After buffer removal, direct immunostaining was performed using phycoerythrin-cojugated CD163 monoclonal primary antibody (Invitrogen, Waltham, Mass., USA) at […] with 90 min incubation at 4° C. Upon the incubation, the cells were once again washed with three changes of 1×PBS for 5 min. […] The samples (20,000 cells) were analyzed using a LSR Fortessa™ high-performance multi-parameter flow cytometer (BD Bioscience, San Jose, Calif., USA) processed with FlowJo software (Tree Star Inc., San Carlos, Calif., USA).

[1] = test system: MLE12 lung epithelial cells; assay: Lung epithelial cell uptake (confocal, FACS); format: cell-based; conditions: 20 μM, 4 h
Protocol: In vitro cell uptake of FITC-APTstat3-9R and FITC-APTstat3-9R-DLNPs was determined by confocal microscopy imaging and FACS analysis. For confocal imaging, MLE12 cells were seeded on sterile cover glass in 12-well plate at 5×10^5 cells/well density followed by overnight incubation. The cells were treated with PBS, FITC-APTstat3-9R (20 μM), or FITC-APTstat3-9R-DLNPs (20 μM) for 4 h. The samples were washed twice with 1×PBS to discard free aptides. Subsequent sample preparation and analysis were described previously in in vitro macrophage polarization analysis section. For FACS experiment, MLE 12 cells were seeded in a 6-well plate at 3×10^5 cells/well density and incubated overnight for stabilization. The samples were treated with PBS, FITC-APTstat3-9R (20 μM), or FITC-APTstat3-9R-DLNPs (20 μM) for 4 h, washed, and collected using trypsin. The following steps were previously detailed in in vitro macrophage polarization analysis.

size and weight of the spleen (psoriasis animal model): shrivelled
Molecule: CCC(=O)O[C@]1(C(=O)CCl)[C@@H](C)C[C@H]2[C@@H]3CCC4=CC(=O)C=C[C@]4(C)[C@@]3(F)[C@@H](O)C[C@@]21C [CLQ, clobetasol propionate]

Molecule: APTscr-9R: control aptide, SEQ ID NO:9; b173 calls it a lipid nanoparticle complex prepared as Example 3 with this aptide (HASDRNGSWTWENGKWTWKGLHEQSD; also: part of a lipid nanoparticle complex) [reference compound]
vimentin marker level after stimulation (MLE12 cells): vastly increased

Kd (STAT3 protein): 200 nM
Molecule: HGFQWPGSWTWENGKWTWKGAYQFLK [aptide for STAT3 protein]

Molecule: HGFQWPGSWTWENGKWTWKGAYQFLKGGGGSRRRRRRRRR (Aptide against STAT3 fused with nona-arginine) [APTstat3-9R]
vimentin marker level after stimulation (MLE12 cells): fairly decreased
reduction of vimentin level compared to PBS treated group (MLE12 cells; TGF-β stimulation): approximately 29%
increase in CD163 level (M2 macrophage specific marker) (RAW264.7 cells): not upregulated
uptake into MLE 12 lung epithelial cells (confocal images) [1]: uptaken

— US20200376138A1, “LIPID NANO PARTICLE COMPLEX COMPRISING APTIDE FUSED WITH CELL PENETRATING MATERIALS AND USE SAME” (Korea Advanced Institute of Science and Technology, priority 2019, published 2020)
